From publication PMC7029851, “Antibacterial activity of novel dual bacterial DNA type II topoisomerase inhibitors” (PLoS ONE, 2020)
Values after ≈ are worked out from the molar mass of the structure shown. Structures can show the parent of a compound that is named as a salt. Where two headings read alike, the source gives them in different places.

Columns and labels:
E. coli DNA gyrase = molecular target: T1, E. coli DNA gyrase (Escherichia coli, UniProt P0AES4); experiment: E. coli DNA gyrase supercoiling gel assay; type: biochemical
T1 construct: purchased Inspiralis (Norwich, UK)
T1 sequence (P0AES4 whole entry): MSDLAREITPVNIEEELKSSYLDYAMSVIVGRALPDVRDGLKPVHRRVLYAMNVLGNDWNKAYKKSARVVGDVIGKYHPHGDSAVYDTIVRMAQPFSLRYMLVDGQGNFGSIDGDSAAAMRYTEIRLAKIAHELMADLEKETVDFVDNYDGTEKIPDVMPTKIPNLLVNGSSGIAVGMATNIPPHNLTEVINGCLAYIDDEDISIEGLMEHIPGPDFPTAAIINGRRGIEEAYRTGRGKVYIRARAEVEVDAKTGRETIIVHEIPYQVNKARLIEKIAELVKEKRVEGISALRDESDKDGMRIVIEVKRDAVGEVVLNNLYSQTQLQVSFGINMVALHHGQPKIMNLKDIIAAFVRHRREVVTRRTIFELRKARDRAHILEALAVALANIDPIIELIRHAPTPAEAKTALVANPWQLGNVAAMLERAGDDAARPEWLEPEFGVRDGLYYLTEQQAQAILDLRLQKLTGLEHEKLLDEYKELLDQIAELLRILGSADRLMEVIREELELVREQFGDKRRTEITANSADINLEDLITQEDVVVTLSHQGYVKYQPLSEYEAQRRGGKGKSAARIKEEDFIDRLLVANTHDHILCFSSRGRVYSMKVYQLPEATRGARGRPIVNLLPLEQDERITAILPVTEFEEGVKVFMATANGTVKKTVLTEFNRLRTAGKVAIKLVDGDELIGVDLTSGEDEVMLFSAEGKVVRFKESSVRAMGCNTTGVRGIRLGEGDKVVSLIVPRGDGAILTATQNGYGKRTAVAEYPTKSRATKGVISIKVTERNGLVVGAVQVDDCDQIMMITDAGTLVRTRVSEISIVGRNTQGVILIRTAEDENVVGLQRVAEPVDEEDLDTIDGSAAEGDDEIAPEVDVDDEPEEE
Experimental: (§1) S. aureus and E. coli DNA gyrase supercoiling and topo IV decatenation assay kits, as well as human topoisomerase II decatenation assay kits, were provided by Inspiralis (Norwich, UK). Assays were performed according to the manufacturer’s instructions. The compounds were serially diluted (1:3 dilutions starting from a 300 μM final concentration) and assayed in a reaction mixture to obtain concentration-response curves in two different replicate experiments. The final concentration of DMSO in the assays was 1% (v/v). The reactions were terminated by the addition of 30 μl chloroform/isoamyl alcohol (26:1) and 30 μl Stop Dye (40% sucrose, 100 mM Tris HCl pH 7.5, 1 mM EDTA, 0.5 μg/ml bromophenol blue), after which the samples were loaded onto a 1.0% TAE ([…]) gel that was then run at 80 V for 2 hours. DNA bands were visualized by ethidium bromide staining the gel for 10 minutes, which was then destained for 10 minutes in water and analysed using gel documentation equipment (Syngene, Cambridge, UK). The DNA in each band was quantitated using Syngene Gene Tools software. Raw gel data (fluorescent band volumes) were converted by the software to percentages of the control (the fully supercoiled or decatenated DNA band). […] The global curve fit non-linear regression tool was used to calculate the IC50 values. The results are expressed as the average values obtained after calculating the IC50 from each replicate run.

[1] = system: N. gonorrhoeae clinical isolates (n = 38); experiment: microbe, parasite or virus in culture; type: cell-based, Neisseria gonorrhoeae; conditions: for MIC50 / MIC90: Neisseria gonorrhoeae
Experimental: (§2) The bacterial reference strains used in this study were purchased from ATCC (American Type Culture Collection) via LGC Standards (Middlesex, UK). […] Clinical MDR isolates were provided by Aptuit, the IHMA Europa Sàrl repository (Epalinges, Switzerland) and the Statens Serum Institute (Copenhagen, Denmark).
(§3) MICs were determined by the broth microdilution method (the agar dilution method was used only for N. gonorrhoeae) according to CLSI guidelines.
(§4) The results obtained using clinical isolates are reported as MIC50 and MIC90 values.

S. aureus ATCC 29213 = experiment: MIC, broth microdilution; type: cell-based, Staphylococcus aureus; conditions: Staphylococcus aureus
Experimental: as §3

[2] = system: E. faecalis clinical isolates (n = 12) vanA (6)/vanB (6); experiment: MIC, multidrug-resistant clinical isolates; type: cell-based; conditions: Enterococcus faecalis; for MIC: read-out: MIC range
Experimental: as §2, §3, §4

[3] = system: E. faecium clinical isolates (n = 12) vanA (6)/vanB (6); experiment: MIC, multidrug-resistant clinical isolates; type: cell-based; conditions: Enterococcus faecium; for MIC: read-out: MIC range
Experimental: as §2, §3, §4

N. gonorrhoeae WHO K = experiment: MIC, agar dilution; type: cell-based; conditions: Neisseria gonorrhoeae, ciprofloxacin-resistant
Experimental: as §3

N. gonorrhoeae WHO N = experiment: MIC, agar dilution; type: cell-based; conditions: Neisseria gonorrhoeae, ciprofloxacin-resistant
Experimental: as §3

[4] = system: N. gonorrhoeae ATCC 19424; experiment: MIC, agar dilution; type: cell-based; conditions: Neisseria gonorrhoeae, ATCC19424; N. gonorrhoeae ATCC 19424, ciprofloxacin-susceptible
Experimental: as §3

N. gonorrhoeae WHO L = experiment: MIC, agar dilution; type: cell-based; conditions: Neisseria gonorrhoeae, ciprofloxacin-resistant
Experimental: as §3

[5] = system: N. gonorrhoeae ATCC 49226; experiment: MIC, agar dilution; type: cell-based; conditions: Neisseria gonorrhoeae, ATCC49226; N. gonorrhoeae ATCC 49226, ciprofloxacin-susceptible
Experimental: as §3

[6] = molecular target: T2, S. aureus Topoisomerase IV (Staphylococcus aureus, UniProt P0C1U9); experiment: S. aureus topoisomerase IV decatenation gel assay; type: biochemical
T2 construct: purchased Inspiralis (Norwich, UK)
Experimental: as §1

[7] = system: K. pneumoniae ATCC 700603; experiment: MIC, broth microdilution; type: cell-based; conditions: Klebsiella pneumoniae, ATCC700603; K. pneumoniae ATCC 700603, ciprofloxacin-susceptible
Experimental: as §3

S. pneumoniae ATCC 49619 = experiment: MIC, broth microdilution; type: cell-based; conditions: Streptococcus pneumoniae, ATCC49619; S. pneumoniae ATCC 49619, ciprofloxacin-susceptible
Experimental: as §3

P. aeruginosa ATCC 27853 = experiment: MIC, broth microdilution; type: cell-based; conditions: Pseudomonas aeruginosa, ATCC27853; P. aeruginosa ATCC 27853, ciprofloxacin-susceptible
Experimental: as §3

H. influenzae ATCC 49766 = experiment: MIC, broth microdilution; type: cell-based; conditions: Haemophilus influenzae, ATCC49766; H. influenzae ATCC 49766, ciprofloxacin-susceptible
Experimental: as §3

E. faecalis ATCC 29212 = experiment: MIC, broth microdilution; type: cell-based; conditions: Enterococcus faecalis, ATCC29212; E. faecalis ATCC 29212, ciprofloxacin-susceptible
Experimental: as §3

S. aureus BAA-1720 = experiment: MIC, broth microdilution; type: cell-based; conditions: Staphylococcus aureus, BAA1720; S. aureus BAA-1720, ciprofloxacin-resistant
Experimental: as §3

E. coli ATCC 25922 = experiment: MIC, broth microdilution; type: cell-based; conditions: Escherichia coli, ATCC25922; E. coli ATCC 25922, ciprofloxacin-susceptible
Experimental: as §3

E. coli TolC- mutant = experiment: microbe, parasite or virus in culture; type: cell-based; conditions: Escherichia coli
Experimental: as §2, §3

[8] = system: H. influenzae AcrA- mutant; experiment: microbe, parasite or virus in culture; type: cell-based; conditions: Haemophilus influenzae
Experimental: as §2, §3

Human Topoisomerase II = molecular target: T3, Human Topoisomerase II (Homo sapiens, UniProt P11388); experiment: Human topoisomerase II decatenation gel assay; type: biochemical
T3 construct: purchased Inspiralis (Norwich, UK)
T3 sequence (P11388 whole entry): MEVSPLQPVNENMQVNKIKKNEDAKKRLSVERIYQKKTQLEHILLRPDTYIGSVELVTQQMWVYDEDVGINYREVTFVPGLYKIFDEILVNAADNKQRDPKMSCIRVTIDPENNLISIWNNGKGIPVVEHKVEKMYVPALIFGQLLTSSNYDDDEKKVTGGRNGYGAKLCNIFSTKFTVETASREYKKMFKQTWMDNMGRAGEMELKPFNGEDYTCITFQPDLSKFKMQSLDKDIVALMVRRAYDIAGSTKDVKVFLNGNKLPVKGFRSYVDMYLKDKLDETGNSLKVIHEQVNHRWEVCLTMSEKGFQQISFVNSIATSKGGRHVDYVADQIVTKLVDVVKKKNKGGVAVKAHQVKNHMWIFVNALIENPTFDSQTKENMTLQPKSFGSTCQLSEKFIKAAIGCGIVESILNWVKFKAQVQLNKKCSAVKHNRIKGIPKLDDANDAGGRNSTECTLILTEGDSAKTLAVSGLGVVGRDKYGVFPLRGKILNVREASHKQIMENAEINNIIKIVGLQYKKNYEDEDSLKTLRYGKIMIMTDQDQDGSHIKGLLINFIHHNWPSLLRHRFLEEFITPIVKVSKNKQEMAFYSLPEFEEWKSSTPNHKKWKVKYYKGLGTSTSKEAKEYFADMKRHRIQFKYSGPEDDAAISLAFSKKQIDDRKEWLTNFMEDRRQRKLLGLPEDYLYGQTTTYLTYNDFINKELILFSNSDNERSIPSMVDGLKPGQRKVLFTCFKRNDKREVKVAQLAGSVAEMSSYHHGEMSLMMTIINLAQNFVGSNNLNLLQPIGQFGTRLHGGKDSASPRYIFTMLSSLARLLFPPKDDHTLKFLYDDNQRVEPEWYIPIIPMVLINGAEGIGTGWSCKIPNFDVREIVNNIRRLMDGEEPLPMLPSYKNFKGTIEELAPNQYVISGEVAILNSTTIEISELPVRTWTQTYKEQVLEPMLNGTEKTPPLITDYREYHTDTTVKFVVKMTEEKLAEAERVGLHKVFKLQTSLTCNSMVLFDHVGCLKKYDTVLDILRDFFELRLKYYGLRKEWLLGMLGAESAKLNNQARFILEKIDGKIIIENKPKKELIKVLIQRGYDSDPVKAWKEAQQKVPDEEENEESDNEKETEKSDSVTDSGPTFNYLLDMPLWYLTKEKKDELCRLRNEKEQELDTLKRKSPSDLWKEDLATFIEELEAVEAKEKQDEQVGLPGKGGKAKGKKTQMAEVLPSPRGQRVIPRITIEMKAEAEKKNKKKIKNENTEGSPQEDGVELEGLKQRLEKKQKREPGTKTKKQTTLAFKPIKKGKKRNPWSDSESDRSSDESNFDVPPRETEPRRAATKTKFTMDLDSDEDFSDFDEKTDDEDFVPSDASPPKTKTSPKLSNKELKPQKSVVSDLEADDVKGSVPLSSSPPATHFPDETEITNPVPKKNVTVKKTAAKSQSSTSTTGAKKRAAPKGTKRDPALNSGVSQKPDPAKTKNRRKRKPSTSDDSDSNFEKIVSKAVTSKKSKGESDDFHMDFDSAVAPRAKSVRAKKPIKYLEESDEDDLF
Experimental: as §1

S. aureus DNA gyrase = molecular target: T4, S. aureus DNA gyrase (Staphylococcus aureus, UniProt P20831); experiment: S. aureus DNA gyrase supercoiling gel assay; type: biochemical
T4 construct: purchased Inspiralis (Norwich, UK)
Experimental: as §1

E. coli Topoisomerase IV = molecular target: T5, E. coli Topoisomerase IV (Escherichia coli, UniProt P0AFI2); experiment: E. coli topoisomerase IV decatenation gel assay; type: biochemical
T5 construct: purchased Inspiralis (Norwich, UK)
T5 sequence (P20083 whole entry): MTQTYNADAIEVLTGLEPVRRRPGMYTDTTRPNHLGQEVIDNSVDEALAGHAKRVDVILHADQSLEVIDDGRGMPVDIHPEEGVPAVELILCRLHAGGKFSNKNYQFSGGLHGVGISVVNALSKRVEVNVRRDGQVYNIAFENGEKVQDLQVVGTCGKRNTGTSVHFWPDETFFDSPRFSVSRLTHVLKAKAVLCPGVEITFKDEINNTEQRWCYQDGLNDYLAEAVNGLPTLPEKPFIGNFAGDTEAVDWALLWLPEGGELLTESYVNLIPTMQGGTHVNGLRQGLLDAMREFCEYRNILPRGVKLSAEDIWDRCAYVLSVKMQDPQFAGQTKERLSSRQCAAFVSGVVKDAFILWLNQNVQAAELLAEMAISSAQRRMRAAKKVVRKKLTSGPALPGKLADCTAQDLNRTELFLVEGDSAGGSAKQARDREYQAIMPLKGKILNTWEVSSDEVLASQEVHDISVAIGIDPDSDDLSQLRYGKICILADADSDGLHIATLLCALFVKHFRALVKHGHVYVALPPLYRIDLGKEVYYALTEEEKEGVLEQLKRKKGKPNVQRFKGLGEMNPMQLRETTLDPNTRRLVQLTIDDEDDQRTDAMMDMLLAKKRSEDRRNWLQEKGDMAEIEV
T5 sequence (P0AFI2 whole entry): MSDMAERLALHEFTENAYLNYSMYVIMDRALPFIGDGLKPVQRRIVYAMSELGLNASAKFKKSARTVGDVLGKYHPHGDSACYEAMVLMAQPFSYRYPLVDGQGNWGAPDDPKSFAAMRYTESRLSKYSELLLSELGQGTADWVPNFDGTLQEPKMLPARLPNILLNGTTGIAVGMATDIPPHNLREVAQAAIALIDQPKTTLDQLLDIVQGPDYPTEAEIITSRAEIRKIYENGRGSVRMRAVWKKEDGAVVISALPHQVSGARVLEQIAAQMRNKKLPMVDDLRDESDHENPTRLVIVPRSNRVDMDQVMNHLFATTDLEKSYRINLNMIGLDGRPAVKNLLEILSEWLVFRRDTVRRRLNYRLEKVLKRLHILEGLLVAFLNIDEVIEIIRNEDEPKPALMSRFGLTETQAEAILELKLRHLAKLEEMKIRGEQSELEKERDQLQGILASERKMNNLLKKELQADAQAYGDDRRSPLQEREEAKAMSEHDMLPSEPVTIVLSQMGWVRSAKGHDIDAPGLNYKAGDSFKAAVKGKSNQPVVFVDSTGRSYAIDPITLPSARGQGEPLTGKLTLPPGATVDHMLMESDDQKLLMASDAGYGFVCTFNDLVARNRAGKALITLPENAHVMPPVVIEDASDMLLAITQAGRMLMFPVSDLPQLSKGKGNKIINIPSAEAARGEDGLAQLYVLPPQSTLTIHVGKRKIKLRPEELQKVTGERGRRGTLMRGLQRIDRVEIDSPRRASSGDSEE
Experimental: as §1

[9] = average of two replicate experiments, read-out: IC50 E. coli Gyrase Supercoiling (average)
[10] = replicate Assay 1, read-out: IC50 E. coli gyrase Supercoiling, Assay 1
[11] = replicate Assay 2, read-out: IC50 E. coli gyrase Supercoiling, Assay 2
[12] = ATCC29213, S. aureus ATCC 29213, ciprofloxacin-susceptible
[13] = replicate Assay 1, read-out: IC50 S. aureus Topoisomerase IV decatenation, Assay 1
[14] = replicate Assay 2, read-out: IC50 S. aureus Topoisomerase IV decatenation, Assay 2
[15] = average of two replicate experiments, read-out: IC50 Human Topoisomerase II decatenation (average)
[16] = replicate Assay 1, read-out: IC50 Human Topoisomerase II (TopoII) decatenation, Assay 1
[17] = replicate Assay 2, read-out: IC50 Human Topoisomerase II (TopoII) decatenation, Assay 2
[18] = replicate Assay 1, read-out: IC50 S.aureus gyrase Supercoiling, Assay 1
[19] = replicate Assay 2, read-out: IC50 S.aureus gyrase Supercoiling, Assay 2
[20] = average of two replicate experiments, read-out: IC50 E. coli Topoisomerase IV decatenation (average)
[21] = replicate Assay 1, read-out: IC50 E. coli Topoisomerase IV decatenation, Assay 1
[22] = replicate Assay 2, read-out: IC50 E. coli Topoisomerase IV decatenation, Assay 2

Structure (SMILES)	IC50 (E. coli DNA gyrase; [9])	IC50 (E. coli DNA gyrase; [10])	IC50 (E. coli DNA gyrase; [11])	MIC range [1]	MIC50 [1]	MIC90 [1]	MIC (S. aureus ATCC 29213; [12])	MIC50 [2]	MIC90 [2]	MIC [2]	MIC50 [3]	MIC90 [3]	MIC [3]	MIC (N. gonorrhoeae WHO K)	MIC (N. gonorrhoeae WHO N)	MIC [4]	MIC (N. gonorrhoeae WHO L)	MIC [5]	IC50 [6]	IC50 [6, 13]	further results
O=c1oc2ccc(F)cc2c2[nH]c(CN[C@H]3CC[C@H](n4c(=O)cnc5ncc(F)cc54)CC3)cc12 [Compound 4, 8-fluoro-2-({[trans-4-(7-fluoro-2-oxopyrido[2,3-b]pyrazin-1(2H)-yl)cyclohexyl]amino}methyl)[1]benzopyrano[4,3-b]pyrrol-4(1H)-one (formate salt)]	130 nM	150 nM	120 nM	0.004 to 0.12 µg/mL	0.06 µg/mL	0.12 µg/mL	0.25 µg/mL	0.25 µg/mL	0.5 µg/mL	0.12 to 1 µg/mL	1 µg/mL	1 µg/mL	0.25 to 8 µg/mL	0.12 µg/mL	0.06 µg/mL	≤ 0.06 µg/mL	0.12 µg/mL	0.06 µg/mL	220 nM	260 nM	IC50 [6, 14]: 170 nM; MIC [7]: 4 µg/mL; MIC (S. pneumoniae ATCC 49619): 0.25 µg/mL; MIC (P. aeruginosa ATCC 27853): 2 µg/mL; MIC (H. influenzae ATCC 49766): 0.12 µg/mL; MIC (E. faecalis ATCC 29212): 0.5 µg/mL; MIC (S. aureus BAA-1720): 0.5 µg/mL; MIC (E. coli ATCC 25922): 0.5 µg/mL; MIC (E. coli TolC- mutant): ≤ 0.016 µg/mL; MIC [8]: ≤ 0.016 µg/mL; IC50 (Human Topoisomerase II; [15]): > 300000 nM; IC50 (Human Topoisomerase II; [16]): > 300000 nM; IC50 (Human Topoisomerase II; [17]): > 300000 nM; IC50 (S. aureus DNA gyrase; average of two replicate experiments, read-out: IC50 S. aureus Gyrase Supercoiling (average)): 1000 nM; IC50 (S. aureus DNA gyrase; [18]): 800 nM; IC50 (S. aureus DNA gyrase; [19]): 1200 nM; IC50 (E. coli Topoisomerase IV; [20]): 300 nM; IC50 (E. coli Topoisomerase IV; [21]): 500 nM; IC50 (E. coli Topoisomerase IV; [22]): 200 nM
O=C1COc2ncc(F)cc2N1[C@H]1CC[C@H](NCc2cc3c(=O)oc4ccc(F)cc4c3[nH]2)CC1 [Compound 1, 8-fluoro-2-({[trans-4-(7-fluoro-2-oxo-2,3-dihydro-1H-pyrido[2,3-b][1,4]oxazin-1-yl)cyclohexyl]amino}methyl)[1]benzopyrano[4,3-b]pyrrol-4(1H)-one]	250 nM	340 nM	160 nM	0.016 to 0.12 µg/mL	0.12 µg/mL (≈ 0.25 µM)	0.12 µg/mL (≈ 0.25 µM)	0.25 µg/mL (≈ 0.52 µM)	0.03 µg/mL (≈ 0.0624 µM)	0.25 µg/mL (≈ 0.52 µM)	0.03 to 0.25 µg/mL (≈ 0.0624 to 0.52 µM)	1 µg/mL (≈ 2.08 µM)	2 µg/mL (≈ 4.16 µM)	0.03 to 16 µg/mL (≈ 0.0624 to 33.3 µM)	0.12 µg/mL (≈ 0.25 µM)	0.06 µg/mL (≈ 0.125 µM)	≤ 0.06 µg/mL	0.12 µg/mL (≈ 0.25 µM)	0.06 µg/mL (≈ 0.125 µM)	2250 nM	2200 nM	MIC (S. aureus ATCC 29213; ATCC29213, S. aureus ATCC29213, ref strain, S4 File): 0.25 µg/mL (≈ 0.52 µM); IC50 [6, 14]: 2300 nM; MIC [7]: 4 µg/mL (≈ 8.33 µM); MIC (S. pneumoniae ATCC 49619): 0.5 µg/mL (≈ 1.04 µM); MIC (P. aeruginosa ATCC 27853): 2 µg/mL (≈ 4.16 µM); MIC (H. influenzae ATCC 49766): 0.25 µg/mL (≈ 0.52 µM); MIC (E. faecalis ATCC 29212): 2 µg/mL (≈ 4.16 µM); MIC (S. aureus BAA-1720): 0.5 µg/mL (≈ 1.04 µM); MIC (E. coli ATCC 25922): 0.5 µg/mL (≈ 1.04 µM); MIC (E. coli TolC- mutant): ≤ 0.016 µg/mL; MIC [8]: ≤ 0.016 µg/mL; IC50 (Human Topoisomerase II; [15]): 98000 nM; IC50 (Human Topoisomerase II; [16]): 96000 nM; IC50 (Human Topoisomerase II; [17]): 99000 nM; IC50 (S. aureus DNA gyrase; IC50 S. aureus Gyrase Supercoiling (average), average of two replicate experiments): 280 nM; IC50 (S. aureus DNA gyrase; [18]): 250 nM; IC50 (S. aureus DNA gyrase; [19]): 310 nM; IC50 (E. coli Topoisomerase IV; [20]): 1380 nM; IC50 (E. coli Topoisomerase IV; [21]): 1350 nM; IC50 (E. coli Topoisomerase IV; [22]): 1420 nM
